# Laboratory results from ChEMBL document CHEMBL4330111 (Bioorg Med Chem Lett, 2019).
# How the values were obtained:
# Vero = experiment: Cytotoxicity against African green monkey Vero cells after 48 hrs by MTT assay; assay type: cell-based; conditions: chlorocebus sabaeus
# [1] = test system: Mycobacterium tuberculosis; experiment: microbe, parasite or virus in culture; conditions: H37Rv, 144 h
# Description: Antitubercular activity against Mycobacterium tuberculosis H37Rv after 6 days by alamar blue reagent based assay
# Acinetobacter baumannii = experiment: Antibacterial activity against Acinetobacter baumannii ATCC 19606; assay type: functional; conditions: ATCC 19606 = CIP 70.34 = JCM 6841
# [2] = Antibacterial activity against Enterobacter cloacae ATCC 13047; assay type: functional, Enterobacter cloacae subsp. cloacae
# Enterococcus faecium = experiment: Antibacterial activity against Enterococcus faecium NCTC 7171; assay type: functional
# Klebsiella pneumoniae = experiment: Antibacterial activity against Klebsiella pneumoniae BAA 2146; assay type: functional; conditions: ATCC BAA-2146
# Pseudomonas aeruginosa = experiment: Antibacterial activity against Pseudomonas aeruginosa HER1018; assay type: functional
# Staphylococcus aureus = experiment: Antibacterial activity against Staphylococcus aureus ATCC 43300; assay type: functional
# [3] = Half life in mouse liver microsomes; assay type: ADME, Microsome
# [4] = Kinetic solubility of the compound in pH 7.4 phosphate buffered saline; assay type: physicochemical; conditions: for solubility kinetic: phosphate buffered saline, read-out: Kinetic_solubility; for Kinetic_solubility: buffer
# [5] = Cmax in CD-1 mouse at 25 mg/kg, po administered as single dose by LC-MS/MS analysis; assay type: ADME, organism-based; parameters: dose 25 mg/kg, route oral; conditions: in vivo
# [6] = AUC (0 to 5 hrs) in CD-1 mouse at 25 mg/kg, po administered as single dose by LC-MS/MS analysis; assay type: ADME, organism-based; parameters: dose 25 mg/kg, route oral; conditions: in vivo
# [7] = Intrinsic clearance in mouse liver microsomes assessed per mg protein; assay type: ADME, Microsome
# [8] = Ratio of drug level in CD-1 mouse lungs to plasma at 25 mg/kg, po administered as single dose measured after 5 hrs by LC-MS/MS analysis; assay type: ADME, organism-based; conditions: lung/plasma
Compound,CC50 (Vero),MIC [1],further results
O=C(NCc1ccccc1Cl)c1ccc([N+](=O)[O-])o1,11 µM,6.2 µM,
O=C(NCc1ccccc1)c1ccc([N+](=O)[O-])o1,13 µM,0.39 µM,"MIC (Acinetobacter baumannii): > 200 µM; MIC [2]: > 200 µM; MIC (Enterococcus faecium): > 200 µM; MIC (Klebsiella pneumoniae): > 200 µM; MIC (Pseudomonas aeruginosa): > 200 µM; MIC (Staphylococcus aureus): > 200 µM; t1/2 [3]: 28.5 min; solubility kinetic [4]: > 500 µM; Cmax ([5]; CD-1, mouse, read-out: Cmax): 1160 nM; AUC [6]: 547 ng·h/mL; Intrinsic clearance [7]: 24.3 µL/min"
O=C(Nc1ccc(Cl)cc1)c1ccc([N+](=O)[O-])o1,1.5 µM,0.78 µM,
O=C(Nc1ccccc1)c1ccc([N+](=O)[O-])o1,6.7 µM,3.1 µM,
O=C(NCCc1ccccc1)c1ccc([N+](=O)[O-])o1,12 µM,3.1 µM,
CC(NC(=O)c1ccc([N+](=O)[O-])o1)c1ccccc1 (stereo not given),24 µM,6.2 µM,
CC(C)(NC(=O)c1ccc([N+](=O)[O-])o1)c1ccccc1,,0.78 µM,"t1/2 [3]: 74.5 min; Kinetic_solubility [4]: 388 µM; Cmax ([5]; CD-1, mouse, read-out: Cmax): 1620 nM; AUC [6]: 717 ng·h/mL; Intrinsic clearance [7]: 9.3 µL/min"
O=C(NC(=O)c1ccc([N+](=O)[O-])o1)c1ccccc1,3 µM,25 µM,
O=C(Nc1cc2ccccc2o1)c1ccc([N+](=O)[O-])o1,40 µM,0.2 µM,
CC(C)(NC(=O)c1ccc([N+](=O)[O-])o1)c1ccc(Oc2ccc(Cl)cc2)cc1,67 µM,0.39 µM,
CC(C)(C)C(NC(=O)c1ccc([N+](=O)[O-])o1)c1ccccc1 (stereo not given),10 µM,25 µM,
O=C(NCc1ccc(Oc2ccc(Cl)cc2)cc1)c1ccc([N+](=O)[O-])o1,,0.062 µM,
O=C(NCCCc1ccc(Cl)cc1)c1ccc([N+](=O)[O-])o1,19 µM,0.39 µM,
O=C(NCc1cccc(Cl)c1)c1ccc([N+](=O)[O-])o1,5.5 µM,0.78 µM,
CC(C)(NC(=O)c1ccc([N+](=O)[O-])o1)c1ccc(COc2ccccc2OC(F)(F)F)cc1,13 µM,0.098 µM,
CC(C)(NC(=O)c1ccc([N+](=O)[O-])o1)c1ccc(COc2ccc(C(F)(F)F)cc2)cc1,7 µM,0.39 µM,
CC(C)C(NC(=O)c1ccc([N+](=O)[O-])o1)c1ccccc1 (stereo not given),22 µM,6.2 µM,
COc1ccc(OCc2ccc(C(C)(C)NC(=O)c3ccc([N+](=O)[O-])o3)cc2)cc1,> 120 µM,0.078 µM,MIC (Acinetobacter baumannii): > 120 µM; MIC [2]: > 120 µM; MIC (Enterococcus faecium): > 120 µM; MIC (Klebsiella pneumoniae): > 120 µM; MIC (Pseudomonas aeruginosa): > 120 µM; MIC (Staphylococcus aureus): > 120 µM; t1/2 [3]: 45 min; solubility kinetic [4]: < 0.06 µM; Cmax ([5]; mouse): 5 ng/mL; AUC [6]: 11 ng·h/mL; Intrinsic clearance [7]: 15.4 µL/min
COc1ccccc1OCc1ccc(C(C)(C)NC(=O)c2ccc([N+](=O)[O-])o2)cc1,,0.019 µM,"MIC (Acinetobacter baumannii): > 120 µM; MIC [2]: > 120 µM; MIC (Enterococcus faecium): > 120 µM; MIC (Klebsiella pneumoniae): > 120 µM; MIC (Pseudomonas aeruginosa): > 120 µM; MIC (Staphylococcus aureus): > 120 µM; t1/2 [3]: 11.6 min; Kinetic_solubility [4]: 0.182 µM; Cmax ([5]; CD-1, mouse, read-out: Cmax): 210 nM; AUC [6]: 210 ng·h/mL; Kp at 5 h [8]: 0.04 to 0.09; Intrinsic clearance [7]: 59.8 µL/min"
CC(C)(NC(=O)c1ccc([N+](=O)[O-])o1)c1ccc(C#N)cc1,83 µM,> 10 µM,
CC(C)(NC(=O)c1ccc([N+](=O)[O-])o1)c1ccc(F)cc1,42 µM,0.78 µM,
CC(C)(NC(=O)c1ccc([N+](=O)[O-])o1)c1ccc(C(F)(F)F)cc1,> 150 µM,0.78 µM,
